Assay [1] deals with Hep55.1c tumor bearing mice. In words: Transplanted Hep55.1c mouse model of hepatocellular carcinoma, tumor volume by μCT. Type of assay: in vivo, C57BL/6N mice. Particulars: Hep55.1c intrahepatic tumors; 41-A 10 mg/kg weekly oral; anti-CD40 4 mg/kg single dose; vs vehicle. The procedure:
Female C57BL/6N mice (Jackson Laboratories) were injected intra hepatically with 5×10^5 Hep55.1c tumor cell line together with Matrigel (Matrigel Basement Membrane Matrix, Corning Cat #354234) in a total volume of […] (10 μl cell suspension plus 10 μl Martigel). Tumor volume was monitored weekly using μCT (TomoScope Synergy Twin, CT Imaging GmbH) upon a single intravenous administration of contrasting agent Exitron 6000 (Viscovert). Imaging data were reconstructed by TomoScope software and analyzed using Osirix software. […] To compare to another agonistic, immune stimulating agent, a single dose of anti-CD40 antibody (4 mg/kg; clone FGK.45, BioXCell) was given. Data depicted are means±SEM for a minimum of n=9 animals per group.

The subject of assay [2] is Hep55.1c mouse model of hepatocellular carcinoma. In words: Hep55.1c tumor fragment transplantation model, survival. Particulars: alive on day 94 after tumor fragment transplantation; 41-A weekly oral, anti-PD-1 250 μg i.p. 8 doses. Type of assay: in vivo, C57BL/6N mice. The procedure: Female C57BL/6N mice (Jackson Laboratories) were injected intra hepatically with 5×10^5 Hep55.1c tumor cell line together with Matrigel (Matrigel Basement Membrane Matrix, Corning Cat #354234) in a total volume of 20 μl (10 μl cell suspension plus 10 μl Martigel). After 3 weeks, animals were sacrificed and tumors excised from the liver. Excised tumors were cut into 1×1 mm^3 pieces and implanted into the liver of female C57BL/6N mice. Scout animals were sacrificed to determine the time point of treatment start at about 80 mm^3 tumor volume. […] 41-A was given weekly, while anti-PD-1 antibody treatment started one day after 41-A treatment and was continued every three to four days for 8 doses in total. Treatment with both agents was stopped after the last anti-PD-1 administration.

Assay [3] concerns PD-L1 expression on tumor cells. As to the kind of experiment: PD-L1 expression on tumor cells of iAST mice by flow cytometry. Particulars: day 12 after treatment start. The class given is in vivo, mouse. The procedure:
Tumors from iAST mice were treated as described in FIG. 1. […] For flow cytometry, tumors were excised and single cell suspensions obtained by mechanical processing and enzymatic digestion (DNAse 0.01%, Collagenase IV 1 mg/ml). Staining procedures started with Fc receptor blocking using 2.4G2 antibody clone (1:200 dilution, BD Bioscience), and the following antibodies (clones) were used to analyzed leukocyte infiltrate: CD45-FITC (30-F11, BioLegend) and CD11b-BUV737 (M1/70, BD Bioscience). Samples were acquired using a LSR Fortessa machine (BD Bioscience) and analyzed by FlowJo version 10 (Treestar).
On the technique in general: In flow cytometry, cells or beads pass a laser one at a time.

In assay [4] the test system is iAST mouse model of hepatocellular carcinoma. As to the kind of experiment: iAST mouse model of hepatocellular carcinoma, tumor burden. Particulars: iAST mice, day 12 after treatment start; 41-A 10 mg/kg once a week oral, Sorafenib 90 mg/kg daily.
Description: Per group n=10 were analyzed by One-way ANOVA and Tukey correction shown as individual dots with means±SEM using GraphPad Prism software version 6.

Entries after “also recorded” stand apart in the source; their conditions may differ.

For the compound `CCCN(C)C(=O)n1c(=O)n(Cc2ccc(Cl)cc2)c2nc([S@](=N)(=O)CC)nc(N)c21` [Example 41-A, 6-Amino-9-[(4-chlorophenyl)methyl]-2-[S(R)-ethylsulfonimidoyl]-N-methyl-8-oxo-N-propyl-purine-7-carboxamide], in assay [1], the “tumor growth (tumor volume)” value is recorded as “tumor stasis; also recorded: inhibition of tumor growth”. Further, in assay [2], the survival of mice was 5/10. Also, the “PD-L1 expression on tumor cells” value was “induced PD-L1 expression on tumor cells” in assay [3] and “induces PD-L1 expression on tumor cells” in assay [3] (listed as compound 41-A). For the same compound, the “Examination of the liver for superficial tumor nodules (tumor nodule free)” value in assay [4] is 0/10 tumor nodule free.
